These compounds were tested against T1, human VDR (Homo sapiens, UniProt P11473) (assay: Evaluation of VDR transcription activity in human osteoblasts (HOS cells), luciferase reporter). Conditions: Activity (EC50, VDR transcription activity), HOS cells transfected with human VDR, human RXRα and DR3 luciferase reporter; 21 hours.
T1 sequence (P11473 1-427): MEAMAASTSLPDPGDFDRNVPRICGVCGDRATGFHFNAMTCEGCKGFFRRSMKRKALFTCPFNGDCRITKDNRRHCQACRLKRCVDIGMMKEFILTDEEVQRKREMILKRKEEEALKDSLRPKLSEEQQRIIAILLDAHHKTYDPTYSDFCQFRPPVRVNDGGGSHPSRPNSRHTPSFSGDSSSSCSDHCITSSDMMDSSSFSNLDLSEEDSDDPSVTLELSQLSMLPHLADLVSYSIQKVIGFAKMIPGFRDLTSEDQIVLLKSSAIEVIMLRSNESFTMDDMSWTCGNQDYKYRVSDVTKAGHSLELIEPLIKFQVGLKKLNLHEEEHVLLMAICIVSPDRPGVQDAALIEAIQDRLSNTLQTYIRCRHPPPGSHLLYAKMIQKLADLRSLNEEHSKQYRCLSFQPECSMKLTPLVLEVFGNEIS
T1 sequence (P19793 1-462 partner): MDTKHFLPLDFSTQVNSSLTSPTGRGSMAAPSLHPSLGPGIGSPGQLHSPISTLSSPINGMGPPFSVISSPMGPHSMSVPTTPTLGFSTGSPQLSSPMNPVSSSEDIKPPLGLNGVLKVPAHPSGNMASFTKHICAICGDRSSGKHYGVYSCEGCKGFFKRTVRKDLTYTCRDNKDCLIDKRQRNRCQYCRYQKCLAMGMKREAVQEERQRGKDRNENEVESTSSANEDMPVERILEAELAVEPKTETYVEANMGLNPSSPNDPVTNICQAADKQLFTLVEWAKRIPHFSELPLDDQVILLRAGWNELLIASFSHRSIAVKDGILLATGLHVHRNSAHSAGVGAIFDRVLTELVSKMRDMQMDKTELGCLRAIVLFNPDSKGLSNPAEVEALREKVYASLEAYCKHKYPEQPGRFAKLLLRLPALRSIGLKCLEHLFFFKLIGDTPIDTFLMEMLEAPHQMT

EC50 [nM] | SMILES
10 to 100 | C[C@H](CN1CC[C@](C)(O)C1)[C@H]1CC[C@H]2/C(=C/C=C3CC(O)C[C@H](O)C3)CCC[C@]12C (stereo in doubt) [Compound B072, (1R,3 S)-5-(2-((1R,3aS,7aR,E)-1-((S)-1-((S)-3-hydroxy-3-methylpyrrolidin-1-yl)propan-2-yl)-7a-methyloctahydro-4H-inden-4-ylidene)ethylidene)cyclohexane-1,3-diol]
10 to 100 | C=C1/C(=C\C=C2/CCC[C@]3(C)[C@@H]([C@H](C)CN4CC(C(C)(F)F)C4)CC[C@@H]23)C[C@@H](O)C[C@@H]1O [Compound A006, (1R,3S,Z)-5-(2-((1R,3aS,7aR,E)-1-((S)-1-(3-(1,1-difluoroethyl)azetidin-1-yl)propan-2-yl)-7a-methyloctahydro-4H-inden-4-ylidene)ethylidene)-4-methylenecyclohexane-1,3-diol]
10 to 100 | C[C@H](CCN1CC[C@H](C(C)(F)F)C1)[C@H]1CC[C@H]2/C(=C/C=C3C[C@@H](O)C[C@H](O)C3)CCC[C@]12C [Compound B083, (1R,3R)-5-(2-((1R,3aS,7aR,E)-1-((R)-4-((S)-3-(1,1-difluoroethyl)pyrrolidin-1-yl)butan-2-yl)-7a-methyloctahydro-4H-inden-4-ylidene)ethylidene)cyclohexane-1,3-diol]
10 to 100 | C=C1[C@H](O)CC(=C/C=C2\CCC[C@]3(C)[C@@H]([C@H](C)CN4CCCC(C)(OC)C4)CC[C@@H]23)C[C@H]1O (single isomer, unassigned) [Compound C047b]
1 to 10 | C=C1[C@H](O)CC(=C/C=C2\CCC[C@]3(C)[C@@H]([C@H](C)CN4CCCC(O)(CC)C4)CC[C@@H]23)C[C@H]1O (single isomer, unassigned) [Compound C046b]
< 1 | C=C1/C(=C\C=C2/CCC[C@]3(C)[C@@H]([C@H](C)CN4CCC(O)(C(F)(F)F)C4)CC[C@@H]23)C[C@@H](O)C[C@@H]1O (single isomer, unassigned) [Compound B044a]
10 to 100 | C[C@H](CN1CC[C@@H](OC(F)F)C1)[C@H]1CC[C@H]2/C(=C/C=C3C[C@@H](O)C[C@H](O)C3)CCC[C@]12C [Compound B052, (1R,3R)-5-(2-((1R,3aS,7aR,E)-1-((S)-1-((R)-3-(difluoromethoxy)pyrrolidin-1-yl)propan-2-yl)-7a-methyloctahydro-4H-inden-4-ylidene)ethylidene)cyclohexane-1,3-diol]
10 to 100 | C=C1/C(=C\C=C2/CCC[C@]3(C)[C@@H]([C@H](C)CN4CCCC(C)(O)C4)CC[C@@H]23)C[C@@H](O)C[C@@H]1O (single isomer, unassigned) [Compound C037b]
< 1 | C=C1[C@H](O)CC(=C/C=C2\CCC[C@]3(C)[C@@H]([C@H](C)CCN4CC(O)(C(F)(F)F)C4)CC[C@@H]23)C[C@H]1O [Compound A023, (1R,3R)-5-(2-((1R,3aS,7aR,E)-1-((R)-4-(3-hydroxy-3-(trifluoromethyl)azetidin-1-yl)butan-2-yl)-7a-methyloctahydro-4H-inden-4-ylidene)ethylidene)-2-methylenecyclohexane-1,3-diol]
10 to 100 | C[C@H](CCN1CC[C@H](F)C1)[C@H]1CC[C@H]2/C(=C/C=C3C[C@@H](O)C[C@H](O)C3)CCC[C@]12C [Compound B014, (1R,3R)-5-(2-((1R,3aS,7aR,E)-1-((R)-4-((S)-3-fluoropyrrolidin-1-yl)butan-2-yl)-7a-methyloctahydro-4H-inden-4-ylidene)ethylidene)cyclohexane-1,3-diol]
< 1 | C=C1/C(=C\C=C2/CCC[C@]3(C)[C@@H]([C@H](C)CN4CCCC(O)(C(F)F)C4)CC[C@@H]23)C[C@@H](O)C[C@@H]1O (single isomer, unassigned) [Compound C034a]
10 to 100 | C=C1/C(=C\C=C2/CCC[C@]3(C)[C@@H]([C@H](C)CN4CC[C@](C)(O)C4)CC[C@@H]23)C[C@@H](O)C[C@@H]1O [Compound B071, (1R,3S,Z)-5-(2-((1R,3aS,7aR,E)-1-((S)-1-((S)-3-hydroxy-3-methylpyrrolidin-1-yl)propan-2-yl)-7a-methyloctahydro-4H-inden-4-ylidene)ethylidene)-4-methylenecyclohexane-1,3-diol]
10 to 100 | C=C1/C(=C\C=C2/CCC[C@]3(C)[C@@H]([C@H](C)CN4CC[C@@H](OCC(F)F)C4)CC[C@@H]23)C[C@@H](O)C[C@@H]1O [Compound B054, (1R,3S,Z)-5-(2-((1R,3aS,7aR,E)-1-((S)-1-((R)-3-(2,2-difluoroethoxy)pyrrolidin-1-yl)propan-2-yl)-7a-methyloctahydro-4H-inden-4-ylidene)ethylidene)-4-methylenecyclohexane-1,3-diol]
1 to 10 | C=C1[C@H](O)CC(=C/C=C2\CCC[C@]3(C)[C@@H]([C@H](C)CN4CCCC(C)(OC)C4)CC[C@@H]23)C[C@H]1O (single isomer, unassigned) [Compound C047a]
1 to 10 | C=C1[C@H](O)CC(=C/C=C2\CCC[C@]3(C)[C@@H]([C@H](C)CN4CCC[C@H](C(C)(F)F)C4)CC[C@@H]23)C[C@H]1O [Compound C053, (1R,3R)-5-(2-((1R,3aS,7aR,E)-1-((S)-1-((S)-3-(1,1-difluoroethyl)piperidin-1-yl)propan-2-yl)-7a-methyloctahydro-4H-inden-4-ylidene)ethylidene)-2-methylenecyclohexane-1,3-diol]
10 to 100 | C=C1[C@H](O)CC(=C/C=C2\CCC[C@]3(C)[C@@H]([C@H](C)CN4CCC(O)(C(F)F)CC4)CC[C@@H]23)C[C@H]1O [Compound C022, (1R,3R)-5-(2-((1R,3aS,7aR,E)-1-((S)-1-(4-(difluoromethyl)-4-hydroxypiperidin-1-yl)propan-2-yl)-7a-methyloctahydro-4H-inden-4-ylidene)ethylidene)-2-methylenecyclohexane-1,3-diol]
1 to 10 | C=C1[C@H](O)CC(=C/C=C2\CCC[C@]3(C)[C@@H]([C@H](C)CCN4CC[C@H](C(F)F)C4)CC[C@@H]23)C[C@H]1O [Compound B088, (1R,3R)-5-(2-((1R,3aS,7aR,E)-1-((R)-4-((S)-3-(difluoromethyl)pyrrolidin-1-yl)butan-2-yl)-7a-methyloctahydro-4H-inden-4-ylidene)ethylidene)-2-methylenecyclohexane-1,3-diol]
10 to 100 | C[C@@H](CN1CC[C@@H](F)C1)[C@H]1CC[C@H]2/C(=C/C=C3CC(O)C[C@H](O)C3)CCC[C@]12C (stereo in doubt) [Compound B098, (1R,3S)-5-(2-((1R,3aS,7aR,E)-1-((R)-1-((R)-3-fluoropyrrolidin-1-yl)propan-2-yl)-7a-methyloctahydro-4H-inden-4-ylidene)ethylidene)cyclohexane-1,3-diol]
10 to 100 | C=C1[C@H](O)CC(=C/C=C2\CCC[C@]3(C)[C@@H]([C@H](C)CN4CCC(O)(C5CC5)C4)CC[C@@H]23)C[C@H]1O (stereo partly drawn) [Compound B077, (1R,3R)-5-(2-((1R,3aS,7aR,E)-1-((2S)-1-(3-cyclopropyl-3-hydroxypyrrolidin-1-yl)propan-2-yl)-7a-methyloctahydro-4H-inden-4-ylidene)ethylidene)-2-methylenecyclohexane-1,3-diol]
10 to 100 | C=C1[C@H](O)CC(=C/C=C2\CCC[C@]3(C)[C@@H]([C@H](C)CCN4CC[C@@H](CCC(F)F)C4)CC[C@@H]23)C[C@H]1O [Compound B094, (1R,3R)-5-(2-((1R,3aS,7aR,E)-1-((R)-4-((R)-3-(3,3-difluoropropyl)pyrrolidin-1-yl)butan-2-yl)-7a-methyloctahydro-4H-inden-4-ylidene)ethylidene)-2-methylenecyclohexane-1,3-diol]
10 to 100 | C=C1[C@H](O)CC(=C/C=C2\CCC[C@]3(C)[C@@H]([C@H](C)CN4CCC(C(F)(F)F)CC4)CC[C@@H]23)C[C@H]1O [Compound C009, (1R,3R)-5-(2-((1R,3aS,7aR,E)-7a-methyl-1-((S)-1-(4-(trifluoromethyl)piperidin-1-yl)propan-2-yl)octahydro-4H-inden-4-ylidene)ethylidene)-2-methylenecyclohexane-1,3-diol]
100 to 1000 | C=C1/C(=C\C=C2/CCC[C@]3(C)[C@@H](C(C)CN4CC(F)C4)CC[C@@H]23)C[C@@H](O)C[C@@H]1O (stereo in doubt) [Compound A001, (1R,3S,Z)-5-(2-((1R,3aS,7aR,E)-1-((R)-1-(3-fluoroazetidin-1-yl)propan-2-yl)-7a-methyloctahydro-4H-inden-4-ylidene)ethylidene)-4-methylenecyclohexane-1,3-diol]

From patent US20230348376A1 (TEIJIN PHARMA LIMITED, priority 2020, published 2023)
